From ChEMBL document CHEMBL5331051, “Cationic, amphipathic small molecules based on a triazine-piperazine-triazine scaffold as a new class of antimicrobial agents” (Eur J Med Chem, 2022)
Converted amounts (≈) assume the structure as drawn. The source made the active and inactive calls. No cut-off for these calls is given here.

How the values were obtained:
Staphylococcus aureus [1] = test: Antibacterial activity against methicillin-resistant Staphylococcus aureus CCARM 3095 strain assessed as bacterial growth inhibition measured at 18 to 24 hrs by microdilution assay; type: functional; conditions: time 18-24 hrs
Escherichia coli [2] = test: Antibacterial activity against Escherichia coli KCTC 1682 strain assessed as bacterial growth inhibition measured at 18 to 24 hrs in presence of 2.5 mM CaCl2 by microdilution assay; type: functional; conditions: time 18-24 hrs
Pseudomonas aeruginosa [3] = test: Synergistic antibacterial activity against multidrug-resistant Pseudomonas aeruginosa CCARM 2095 strain assessed as chloramphenicol MIC by checkerboard assay; type: functional
Pseudomonas aeruginosa [4] = test: Synergistic antibacterial activity against multidrug-resistant Pseudomonas aeruginosa CCARM 2095 strain assessed as ciprofloxacin MIC by checkerboard assay; type: functional
Staphylococcus aureus [5] = test: Synergistic antibacterial activity against multidrug-resistant Staphylococcus aureus CCARM 3089 strain assessed as ciprofloxacin fractional inhibitory concentration by checkerboard assay; type: functional
Escherichia coli [6] = test: Antibacterial activity against Escherichia coli KCTC 1682 strain assessed as bacterial growth inhibition measured at 18 to 24 hrs in presence of 20% human serum by microdilution assay; type: functional; conditions: time 18-24 hrs
Enterococcus faecium = test: Antibacterial activity against vancomycin-resistant Enterococcus faecium ATCC 51559 strain assessed as bacterial growth inhibition measured at 18 to 24 hrs by microdilution assay; type: functional; conditions: time 18-24 hrs
Lipopolysaccharide (LPS) = test: Binding affinity to Escherichia coli O111:B4 lipopolysaccharide assessed as suppression of FTIC labeled LPS binding to mouse RAW264.7 cells at 20 ug/ml pretreated with LPS followed by compound addition by flow cytometer assay (reference value: 67.4%); type: cell-based; conditions: dose 20.0 µg/ml
Pseudomonas aeruginosa [7] = test: Synergistic antibacterial activity against multidrug-resistant Pseudomonas aeruginosa CCARM 2095 strain assessed as fractional inhibitory concentration index in presence of oxacillin by checkerboard assay; type: functional
Escherichia coli [8] = test: Antibacterial activity against Escherichia coli KCTC 1682 strain assessed as bacterial growth inhibition measured after 6 hrs in presence of proteinase K by radial diffusion assay; type: functional, organism-based
Staphylococcus aureus [9] = test: Synergistic antibacterial activity against methicillin-resistant Staphylococcus aureus CCARM 3089 strain assessed as ciprofloxacin MIC by checkerboard assay; type: functional
Pseudomonas aeruginosa [10] = test: Synergistic antibacterial activity against multidrug-resistant Pseudomonas aeruginosa CCARM 2095 strain assessed as ciprofloxacin fractional inhibitory concentration by checkerboard assay; type: functional
Staphylococcus aureus [11] = test: Antibacterial activity against Staphylococcus aureus KCTC 1621 strain assessed as bacterial growth inhibition measured at 18 to 24 hrs in presence of 2.5 mM CaCl2 by microdilution assay; type: functional; conditions: time 18-24 hrs
Escherichia coli [12] = test: Antibacterial activity against Escherichia coli KCTC 1682 strain assessed as bacterial growth inhibition measured at 18 to 24 hrs in presence of 4 uM FeCl3 by microdilution assay; type: functional; conditions: time 18-24 hrs
Pseudomonas aeruginosa [13] = test: Synergistic antibacterial activity against multidrug-resistant Pseudomonas aeruginosa CCARM 2095 strain assessed as oxacillin MIC by checkerboard assay; type: functional
Staphylococcus aureus [14] = test: Antibacterial activity against Staphylococcus aureus KCTC 1621 strain assessed as bacterial growth inhibition measured at 18 to 24 hrs in presence of 20% human serum by microdilution assay; type: functional; conditions: time 18-24 hrs
Pseudomonas aeruginosa [15] = test: Antibacterial activity against multidrug-resistant Pseudomonas aeruginosa CCARM 2109 strain assessed as bacterial growth inhibition measured at 18 to 24 hrs by microdilution assay; type: functional; conditions: time 18-24 hrs
Staphylococcus aureus [16] = test: Synergistic antibacterial activity against multidrug-resistant Staphylococcus aureus CCARM 3089 strain assessed as fractional inhibitory concentration index in presence of ciprofloxacin by checkerboard assay; type: functional
[17] = system: Staphylococcus epidermidis; test: Antibacterial activity against Staphylococcus epidermidis KCTC 1917 strain assessed as bacterial growth inhibition measured at 18 to 24 hrs by microdilution assay; type: functional; conditions: time 18-24 hrs
Erythrocyte = test: Hemolytic activity in sheep RBC assessed as minimal hemolytic concentration causing 10% hemolysis incubated for 1 hr by ELISA; type: toxicity, cell-based, Ovis aries
Staphylococcus aureus [18] = test: Synergistic antibacterial activity against methicillin-resistant Staphylococcus aureus CCARM 3089 strain assessed as fractional inhibitory concentration in presence of ciprofloxacin by checkerboard assay; type: functional
RAW264.7 [19] = test: Antiinflammatory activity in LPS-induced mouse RAW264.7 cells assessed as reduction in iNOS mRNA expression level at 5 ug/ml measured after 18 hrs by RT-PCR assay relative to control; type: functional, cell-based; conditions: dose 5.0 µg/ml
Escherichia coli [20] = test: Antibacterial activity against Escherichia coli KCTC 1682 strain assessed as bacterial growth inhibition measured after 6 hrs in presence of trypsin by radial diffusion assay; type: functional, organism-based
Pseudomonas aeruginosa [21] = test: Synergistic antibacterial activity against multidrug-resistant Pseudomonas aeruginosa CCARM 2095 strain assessed as fractional inhibitory concentration index in presence of ciprofloxacin by checkerboard assay; type: functional
Pseudomonas aeruginosa [22] = test: Synergistic antibacterial activity against multidrug-resistant Pseudomonas aeruginosa CCARM 2095 strain assessed as fractional inhibitory concentration index in presence of chloramphenicol by checkerboard assay; type: functional
Pseudomonas aeruginosa [23] = test: Antibacterial activity against multidrug-resistant Pseudomonas aeruginosa CCARM 2095 strain assessed as bacterial growth inhibition measured at 18 to 24 hrs by microdilution assay; type: functional; conditions: time 18-24 hrs
Cell membrane = test: Induction of cell membrane damage in Escherichia coli KCTC 1682 assessed as increase in fluorescent intensity at 2 times MIC incubated for 30 mins by PI staining based flow cytometry assay (reference value: 9.79 %); type: subcellular
Pseudomonas aeruginosa [24] = test: Synergistic antibacterial activity against multidrug-resistant Pseudomonas aeruginosa CCARM 2095 strain assessed as oxacillin fractional inhibitory concentration by checkerboard assay; type: functional
Staphylococcus aureus [25] = test: Additive antibacterial activity against multidrug-resistant Staphylococcus aureus CCARM 3089 strain assessed as ciprofloxacin fractional inhibitory concentration by checkerboard assay; type: functional
Escherichia coli [26] = test: Antibacterial activity against Escherichia coli KCTC 1682 strain assessed as bacterial growth inhibition measured at 18 to 24 hrs in presence of 4.5 mM KCl by microdilution assay; type: functional; conditions: time 18-24 hrs
Escherichia coli [27] = test: Antibacterial activity against Escherichia coli KCTC 1682 strain assessed as bacterial growth inhibition measured at 18 to 24 hrs in presence of 1 mM MgCl2 by microdilution assay; type: functional; conditions: time 18-24 hrs
Staphylococcus aureus [28] = test: Synergistic antibacterial activity against methicillin-resistant Staphylococcus aureus CCARM 3089 strain assessed as bacterial growth inhibition in presence of oxacillin by checkerboard assay; type: functional
Pseudomonas aeruginosa [29] = test: Synergistic antibacterial activity against multidrug-resistant Pseudomonas aeruginosa CCARM 2095 strain assessed as chloramphenicol fractional inhibitory concentration in presence of chloramphenicol by checkerboard assay; type: functional
Pseudomonas aeruginosa [30] = test: Synergistic antibacterial activity against multidrug-resistant Pseudomonas aeruginosa CCARM 2095 strain assessed as bacterial growth inhibition in presence of chloramphenicol by checkerboard assay; type: functional
Staphylococcus aureus [31] = test: Synergistic antibacterial activity against multidrug-resistant Staphylococcus aureus CCARM 3089 strain assessed as oxacillin fractional inhibitory concentration by checkerboard assay; type: functional
RAW264.7 [32] = test: Antiinflammatory activity in LPS-induced mouse RAW264.7 cells assessed as reduction in TNF alpha mRNA expression level at 20 ug/ml measured after 18 hrs by RT-PCR assay relative to control; type: functional, cell-based; conditions: dose 20.0 µg/ml
Staphylococcus aureus [33] = test: Additive antibacterial activity against methicillin-resistant Staphylococcus aureus CCARM 3089 strain assessed as chloramphenicol MIC by checkerboard assay; type: functional
Staphylococcus aureus [34] = test: Additive antibacterial activity against methicillin-resistant Staphylococcus aureus CCARM 3089 strain assessed as bacterial growth inhibition in presence of chloramphenicol by checkerboard assay; type: functional

| Compound | MIC (Staphylococcus aureus [1]) [µM] | MIC (Escherichia coli [2]) [µM] | MIC (Pseudomonas aeruginosa [4]) [µg/mL] | MIC (Escherichia coli [6]) [µM] | MIC (Enterococcus faecium) [µM] | Flu intensity (Lipopolysaccharide (LPS)) [%] | Activity (Escherichia coli [8]) | MIC (Staphylococcus aureus [11]) [µM] | MIC (Escherichia coli [12]) [µM] | MIC (Staphylococcus aureus [14]) [µM] | MIC (Pseudomonas aeruginosa [15]) [µM] | MIC [17] [µM] | MHC (Erythrocyte) [µM] | Activity (RAW264.7 [19]) | Activity (Escherichia coli [20]) | MIC (Pseudomonas aeruginosa [23]) [µM] | Flu intensity (Cell membrane) [%] | MIC (Escherichia coli [26]) [µM] | MIC (Escherichia coli [27]) [µM] | Activity (RAW264.7 [32]) | also measured |
| --- | --- | --- | --- | --- | --- | --- | --- | --- | --- | --- | --- | --- | --- | --- | --- | --- | --- | --- | --- | --- | --- |
| NCCCN(CCCN)c1nc(NCc2ccccc2)nc(N2CC(Cc3ccccc3)N(c3nc(NCc4ccccc4)nc(N(CCCN)CCCN)n3)CC2Cc2ccccc2)n1 (centres undefined) | 5 (≈ 4.47 µg/mL) | 5 | 64 | 10 | 10 (≈ 8.93 µg/mL) | 13.2 | Active | 5 | 5 | 10 | 10 (≈ 8.93 µg/mL) | 5 (≈ 4.47 µg/mL) | > 318.5 | Active | Active | 20 (≈ 17.9 µg/mL) | 3.03 | 5 | 5 | Active | MIC (Pseudomonas aeruginosa [3]): 128 µg/mL; FIC (Staphylococcus aureus [5]): 0.125; fractional inhibitory concentration index (FICI) (Pseudomonas aeruginosa [7]): 0.5; MIC (Staphylococcus aureus [9]): 64 µg/mL; FIC (Pseudomonas aeruginosa [10]): 0.063; MIC (Pseudomonas aeruginosa [13]): 256 µg/mL; fractional inhibitory concentration index (FICI) (Staphylococcus aureus [16]): 0.375; FIC (Staphylococcus aureus [18]): 0.25; fractional inhibitory concentration index (FICI) (Pseudomonas aeruginosa [21]): 0.312; fractional inhibitory concentration index (FICI) (Pseudomonas aeruginosa [22]): 0.375; FIC (Pseudomonas aeruginosa [24]): 0.25; FIC (Staphylococcus aureus [25]): 0.125; MIC (Staphylococcus aureus [28]): 1 µg/mL; FIC (Pseudomonas aeruginosa [29]): 0.25; MIC (Pseudomonas aeruginosa [30]): 4 µg/mL; FIC (Staphylococcus aureus [31]): 0.25 |
| NCCNc1nc(NCCN)nc(N2CC(Cc3ccccc3)N(c3nc(NCCN)nc(NCCN)n3)CC2Cc2ccccc2)n1 (centres undefined) | 12.2 (≈ 8.01 µg/mL) | 6.1 | 256 | 12.2 | 24.3 (≈ 16 µg/mL) | 21.4 | Active | 6.1 | 12.2 | 12.2 | 24.3 (≈ 16 µg/mL) | 6.1 (≈ 4.01 µg/mL) | > 389.1 | Active | Active | 24.3 (≈ 16 µg/mL) | 8.57 | 6.1 | 6.1 | Active | FIC (Pseudomonas aeruginosa [10]): 0.25; MIC (Staphylococcus aureus [33]): 128 µg/mL; fractional inhibitory concentration index (FICI) (Pseudomonas aeruginosa [21]): 0.5; MIC (Staphylococcus aureus [34]): 16 µg/mL; MIC (Staphylococcus aureus [28]): 8 µg/mL; FIC (Staphylococcus aureus [31]): 0.25 |
| NCCN(CCN)c1nc(NCc2ccccc2)nc(N2CC(Cc3ccccc3)N(c3nc(NCc4ccccc4)nc(N(CCN)CCN)n3)CC2Cc2ccccc2)n1 (centres undefined) | 5.4 (≈ 4.52 µg/mL) | 5.4 | 256 | 5.4 | 21.4 (≈ 17.9 µg/mL) | 8 | Active | 5.4 | 10.8 | 10.8 | 10.7 (≈ 8.96 µg/mL) | 2.7 (≈ 2.26 µg/mL) | > 342.5 | Active | Active | 21.4 (≈ 17.9 µg/mL) | 10.5 | 5.4 | 10.8 | Active | MIC (Pseudomonas aeruginosa [3]): 256 µg/mL; FIC (Staphylococcus aureus [5]): 0.125; fractional inhibitory concentration index (FICI) (Pseudomonas aeruginosa [7]): 0.375; MIC (Staphylococcus aureus [9]): 64 µg/mL; FIC (Pseudomonas aeruginosa [10]): 0.25; MIC (Pseudomonas aeruginosa [13]): 128 µg/mL; fractional inhibitory concentration index (FICI) (Staphylococcus aureus [16]): 0.375; FIC (Staphylococcus aureus [18]): 0.25; fractional inhibitory concentration index (FICI) (Pseudomonas aeruginosa [21]): 0.375; fractional inhibitory concentration index (FICI) (Pseudomonas aeruginosa [22]): 0.5; FIC (Pseudomonas aeruginosa [24]): 0.125; FIC (Staphylococcus aureus [25]): 0.125; MIC (Staphylococcus aureus [28]): 1 µg/mL; FIC (Pseudomonas aeruginosa [29]): 0.25; MIC (Pseudomonas aeruginosa [30]): 4 µg/mL; FIC (Staphylococcus aureus [31]): 0.25 |
| N=C(N)NCCNc1nc(NCCNC(=N)N)nc(N2CC(Cc3ccccc3)N(c3nc(NCCNC(=N)N)nc(NCCNC(=N)N)n3)CC2Cc2ccccc2)n1 (centres undefined) | 9.7 (≈ 8 µg/mL) | 9.7 |  | 9.7 | 38.7 (≈ 31.9 µg/mL) | 21.1 | Active | 9.6 | 19.4 | 9.6 | 19.4 (≈ 16 µg/mL) | 4.8 (≈ 3.96 µg/mL) | > 309.8 | Active | Active | 19.4 (≈ 16 µg/mL) | 2.55 | 9.7 | 9.7 | Active | MIC (Staphylococcus aureus [33]): 128 µg/mL; MIC (Staphylococcus aureus [34]): 4 µg/mL |
